According to PMC5522996, “Big conductance calcium‐activated potassium channel openers control spasticity without sedation” (British Journal of Pharmacology, 2017):

How the values were obtained:
[1] = system: GABA (non-selective); assay: Receptor binding profile of VSN16R; parameters: species or system human; conditions: 10µM VSN16R
[2] = biological target: T1, EDG1 (Homo sapiens, UniProt P21453); assay: Receptor binding profile of VSN16R; conditions: 10µM VSN16R
T1 construct: purchased Cerep; Chantest; DiscoveRx; Multispan; MDS Pharma Services
T1 sequence (P21453 whole entry): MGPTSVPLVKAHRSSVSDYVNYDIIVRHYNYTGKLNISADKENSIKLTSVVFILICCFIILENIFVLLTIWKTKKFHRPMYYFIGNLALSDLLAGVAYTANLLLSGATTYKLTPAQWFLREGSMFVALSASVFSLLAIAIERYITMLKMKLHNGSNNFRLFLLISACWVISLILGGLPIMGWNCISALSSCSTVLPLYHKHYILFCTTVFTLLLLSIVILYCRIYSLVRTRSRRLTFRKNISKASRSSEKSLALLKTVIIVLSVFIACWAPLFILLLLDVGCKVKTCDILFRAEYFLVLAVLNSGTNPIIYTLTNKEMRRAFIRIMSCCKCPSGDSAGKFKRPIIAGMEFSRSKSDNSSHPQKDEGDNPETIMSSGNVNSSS

[3] = biological target: T2, fatty acid amide hydrolase (Homo sapiens, UniProt O00519); assay: Receptor binding profile of VSN16R; conditions: 10µM VSN16R
T2 construct: purchased Cerep; Chantest; DiscoveRx; Multispan; MDS Pharma Services
T2 sequence (O00519 whole entry): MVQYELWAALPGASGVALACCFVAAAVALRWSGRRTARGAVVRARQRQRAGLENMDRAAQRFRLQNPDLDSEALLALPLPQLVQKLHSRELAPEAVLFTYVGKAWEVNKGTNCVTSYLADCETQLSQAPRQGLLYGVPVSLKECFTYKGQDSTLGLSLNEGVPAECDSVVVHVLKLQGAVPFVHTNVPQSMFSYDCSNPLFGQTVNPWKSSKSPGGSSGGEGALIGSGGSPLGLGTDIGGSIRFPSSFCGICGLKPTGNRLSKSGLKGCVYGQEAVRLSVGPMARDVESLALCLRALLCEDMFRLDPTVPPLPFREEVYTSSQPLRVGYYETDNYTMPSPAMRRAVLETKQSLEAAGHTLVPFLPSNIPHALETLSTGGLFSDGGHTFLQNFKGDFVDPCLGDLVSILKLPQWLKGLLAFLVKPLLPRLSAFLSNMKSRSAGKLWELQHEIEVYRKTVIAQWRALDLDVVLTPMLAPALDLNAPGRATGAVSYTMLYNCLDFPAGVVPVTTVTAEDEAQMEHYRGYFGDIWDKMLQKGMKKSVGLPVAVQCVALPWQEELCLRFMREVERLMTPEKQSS

[4] = system: rat mesenteric artery; parameters: method as in Hoi et al., 2007; conditions: ref Hoi et al., 2007; read-out: EC50, vasorelaxation of rat mesenteric arteries; cited from earlier work
[5] = system: Na+-Ca2+ exchanger; assay: Receptor binding profile of VSN16R; parameters: species or system human; conditions: 10µM VSN16R
[6] = Plasma levels in toxicological studies, dogs; assay type: in vivo; conditions: both sexes, Beagle, dog, po, 30 min following 50 mg·kg^−1 p.o., read-out: VSN16R detected in plasma
Experimental: (§1) Twenty‐eight day toxicology in rats and dogs for Investigational New Drug filing was performed by Charles Rivers (UK). Reproductive toxicology in rabbits was performed by Charles Rivers (Canada). Pharmacokinetic and/or toxicological doses ranged from 5 to 1000 mg·kg^−1 p.o. in Sprague Dawley male and female rats (n = 6‐26 per group), 50–200 mg·kg^−1 p.o. in male and female Beagle dogs (n = 6 per group) and 100–750 mg·kg^−1 p.o. in female New Zealand white rabbits (n = 9 per group). Results are expressed as mean ± SD.
The stability of compounds when subjected to hepatic and plasma degradation was assessed in vitro by Inpharmatica, Cambridge, UK. […] Samples were centrifuged, and the resultant supernatant analysed for parent compound. The mass responses at baseline were taken as the 100% reference values against which the disappearance of the compound was measured. […] Half‐life values were calculated from the slope of these plots. Hepatocyte metabolism was assessed by Cyprotex, Macclesfield, and 10 μM VSN16R was incubated with primary mouse, rat, monkey (Macaque) and human hepatocytes for 1 h, and the presence of metabolites was assessed using liquid […] mass spectroscopy. The stability of VSN16R was assessed in vivo by Inpharmatica, Cyprotex and Charles Rivers, Cambridge. […] Data are expressed as mean ± SEM. […]

[7] = biological target: CYP450 1A2 (Homo sapiens, UniProt P05177); assay: CYP450 inhibition of substrate binding
Chain of CYP450 1A2 (P05177 whole entry): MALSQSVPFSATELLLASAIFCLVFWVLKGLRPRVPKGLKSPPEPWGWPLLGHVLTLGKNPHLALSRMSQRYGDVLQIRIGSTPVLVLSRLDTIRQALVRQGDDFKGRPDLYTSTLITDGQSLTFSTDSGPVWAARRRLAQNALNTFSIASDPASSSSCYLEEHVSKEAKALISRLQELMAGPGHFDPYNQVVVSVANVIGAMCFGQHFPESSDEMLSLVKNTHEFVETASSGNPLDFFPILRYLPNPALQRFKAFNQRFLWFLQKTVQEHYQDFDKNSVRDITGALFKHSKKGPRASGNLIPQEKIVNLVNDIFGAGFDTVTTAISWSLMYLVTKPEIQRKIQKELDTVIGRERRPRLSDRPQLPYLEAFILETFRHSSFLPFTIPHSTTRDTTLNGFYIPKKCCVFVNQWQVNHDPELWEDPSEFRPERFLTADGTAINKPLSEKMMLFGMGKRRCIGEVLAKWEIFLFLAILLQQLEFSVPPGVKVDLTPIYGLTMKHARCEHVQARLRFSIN
Excerpt: IC50 Inhibition of substrate binding
Inhibition of binding of either 3-cyano-7-ethoxycoumarin, dibenzylfluorescein or 7-benzyoxy-4-
(trifluoromethyl) coumarin in human enzyme transfected BTI NN-5B1-4 cells or Sf9 insect cells or
inhibition of dextromethorphan substrate to CYP450 2D6 in liver microsomes.

[8] = system: rats; assay: 28 day toxicology in rats (100, 300, 1000mg/kg p.o.); assay type: in vivo, rat
Experimental: as §1
Tissue Analysed Result of Tissue Analysis in Rats Result of Tissue Analysis in Dogs Artery, Aorta Negative Negative
Bone Marrow femur Negative Negative
Bone Marrow sternum Negative Negative
Bone, Sternum Negative Negative
Epididymus Negative Negative
Adrenal Gland Negative Negative
Mammary Grand Negative Negative
Parathyroid Gland Negative Negative
Pituitary Gland Negative Negative
Prostate Gland Negative Negative
Salivary Gland Negative Negative
Seminal Vesicle Gland Negative Negative
Gut associated lymphoid Negative Negative
Large Intestine caecum Negative Negative
Large Intestine colon Negative Negative
Large Intestine rectum Negative Negative
Mandibular Lymph Node Negative Negative
Mesenteric Lymph Node Negative Negative
Skeletal Muscle Negative Negative
Nasal Cavity Negative Negative
Sciatic Nerve Negative Negative
Oesophagus Negative Negative
Pancreas Negative Negative
Small Intestine, duodenum Negative Negative
Small Intestine, Ileum Negative Negative […]
Following 28 day toxicology of feeding either: rats treated with 100mg/kg, 300mg/kg, 1000mg/kg p.o. (n-20/group) or dogs treated with 50mg/kg, 100mg/kg or 200mg/kg p.o. (n=6/group). […] Studies were performed by Charles Rivers, Ltd. However, * There was hypertrophy of the liver that was evident at high doses VSN16R was associated with liver weight (mean ± SD) increases: 11.0 ± 1.2g placebo, 11.6 ± 1.3g (300mg/kg p.o.), 16.7 ± 2.1g (1000mg/kg p.o. P<0.001 assessed using Students t test. n= 10 female rats/group) associated with liver enzyme induction, supporting enhanced VSN16R clearance in pharmacokinetic studies. […]

[9] = biological target: T3, V1a (Homo sapiens, UniProt P37288); assay: Receptor binding profile of VSN16R; conditions: 10µM VSN16R
T3 construct: purchased Cerep; Chantest; DiscoveRx; Multispan; MDS Pharma Services
T3 sequence (P37288 whole entry): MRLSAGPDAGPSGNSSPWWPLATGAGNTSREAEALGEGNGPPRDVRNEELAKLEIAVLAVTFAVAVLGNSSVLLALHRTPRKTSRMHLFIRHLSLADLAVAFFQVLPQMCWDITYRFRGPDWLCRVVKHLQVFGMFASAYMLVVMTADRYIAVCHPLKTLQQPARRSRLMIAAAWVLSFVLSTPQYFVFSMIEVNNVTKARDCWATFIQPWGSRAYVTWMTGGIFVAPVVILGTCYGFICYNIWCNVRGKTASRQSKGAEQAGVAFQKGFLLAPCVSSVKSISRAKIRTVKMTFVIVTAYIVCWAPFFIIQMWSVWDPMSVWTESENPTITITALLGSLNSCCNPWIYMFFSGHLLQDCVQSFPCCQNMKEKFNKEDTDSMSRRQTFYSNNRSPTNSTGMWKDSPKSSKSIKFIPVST

[10] = biological target: T4, A2A (Homo sapiens, UniProt P29274); assay: Receptor binding profile of VSN16R; conditions: 10µM VSN16R
T4 construct: purchased Cerep; Chantest; DiscoveRx; Multispan; MDS Pharma Services
T4 sequence (P29274 whole entry): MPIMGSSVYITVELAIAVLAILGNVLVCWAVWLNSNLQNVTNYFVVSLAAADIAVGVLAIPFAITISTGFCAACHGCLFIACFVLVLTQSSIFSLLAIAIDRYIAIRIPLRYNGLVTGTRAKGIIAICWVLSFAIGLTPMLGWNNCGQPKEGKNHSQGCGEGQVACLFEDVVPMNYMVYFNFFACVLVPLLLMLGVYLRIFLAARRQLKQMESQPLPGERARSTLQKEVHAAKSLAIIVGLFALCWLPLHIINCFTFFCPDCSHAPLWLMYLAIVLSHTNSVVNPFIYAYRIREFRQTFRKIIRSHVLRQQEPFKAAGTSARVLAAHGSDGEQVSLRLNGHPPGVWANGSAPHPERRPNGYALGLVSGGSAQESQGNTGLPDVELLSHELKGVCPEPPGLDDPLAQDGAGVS

[11] = system: spastic ABH mice with EAE; assay: Hoffman (H) reflex electrophysiology in spastic animals; assay type: in vivo, mouse; conditions: 30mg/kg i.v.

## C[C@H](CO)NC(=O)c1cccc(/C=C\CCCC(=O)N(C)C)c1 [VSN16R]
[1]
  Activity: Negligible Activity
[2]
  Activity: Negligible Activity
[3]
  Activity: Negligible Activity
[4]
  EC50: 0.11 µM
[5]
  Activity: Negligible Activity
[6]
  concentration at 30 min: 82 µM
[7]
  IC50: > 10 µM
[8]; both, Sprague Dawley (rat), rat, in vivo, 28 days
  Histological analysis of animal tissues: essentially no significant microscopic findings attributable to VSN16R
[8]; p.o., rats over 28 days
  NOEL: 1000 mg/kg
[8]; rat, in vivo
  Clinical signs: occasional salivation and ‘ploughing’ behaviours
[9]
  Activity: Negligible Activity
[10]
  Activity: Negligible Activity
[11]
  Animals with H reflex inhibited: 3/5
